Measurements taken from patent publication US20250129021A1, “SMALL MOLECULE PROTEIN SYNTHESIS MODULATORS” (Interdict Bio, Inc., priority 2023, published 2025).

Experiments:
Type in all cases: biochemical
MYC = assay: In vitro transcription-translation (IVTT) assay, MYC reporter; details: IVTT assay, HeLa S3 lysate, MYC reporter, normalized sfGFP/mCherry ratio; half-log dilutions 30 μM-0.1 μM, 2 hrs at 30° C.
Procedure, shortened: (§1)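 Reporter: mCherry, P2A, then 3×FLAG-target peptide-sfGFP fusion, IRES-initiated; HeLa S3 lysate IVTT; cpd dilutions 30 μM−0.1 μM half-log in 100% DMSO (dilution-plate conc); DNA added last; 2 h, 30° C; PBS quench.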

CCND1 = assay: In vitro transcription-translation (IVTT) assay, CCND1 reporter; details: IVTT, HeLa S3 lysate, 2 hrs at 30° C.
Procedure, shortened: as §1

MCL-1 = assay: In vitro transcription-translation (IVTT) assay, MCL-1 reporter; details: IVTT, HeLa S3 lysate, 2 hrs at 30° C.; read-out: MCL1 IC50
Procedure, shortened: as §1

CCNTB1 = assay: In vitro transcription-translation (IVTT) assay, CCNTB1 reporter; details: HeLa S3 lysate, 2 hrs at 30° C.
Procedure, shortened: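 IC50 fitted from the sfGFP/mCherry fluorescence ratio, normalized to no-drug control after no-DNA background subtraction. Reactions ran 2 h at 30° C in HeLa S3 cell lysate with reporter plasmid DNA and half-log compound titrations (30 μM−0.1 μM, in DMSO).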

Compound | IC50 (MYC) [µM] | IC50 (CCND1) [µM] | IC50 (MCL-1) [µM] | IC50 (CCNTB1) [µM]
COc1ccc(C[C@H]2NC[C@H](O)[C@H]2OC(=O)NCC2(F)CC2)cc1 [V188381, (2R,3S,4S)-4-hydroxy-2-[(4-methoxyphenyl)methyl]pyrrolidin-3-yl N-[(1-fluorocyclopropyl)methyl]carbamate] | < 10 | 10 to 20 | < 10 | < 10
COc1ccc(C[C@H]2NC[C@H](O)[C@H]2OC(=O)NCc2ccc(C3CCNC3)cc2)cc1 (stereo partly drawn) [V188354, (2R,3S,4S)-4-hydroxy-2-[(4-methoxyphenyl)methyl]pyrrolidin-3-yl N-{[4-(pyrrolidin-3-yl)phenyl]methyl}carbamate] | < 10 | < 10 | < 10 | < 10
COc1ccc(C[C@H]2NC[C@H](O)[C@H]2OC(=O)NCc2ccc(F)cc2)cc1 [V188378, (2R,3S,4S)-4-hydroxy-2-[(4-methoxyphenyl)methyl]pyrrolidin-3-yl N-[(4-fluorophenyl)methyl]carbamate] | < 10 | < 10 | < 10 | < 10
COc1ccc(C[C@H]2NC[C@H](O)[C@H]2OC(=O)NCc2ccc(C3CCCN3)cc2)cc1 (stereo partly drawn) [V188355, (2R,3S,4S)-4-hydroxy-2-[(4-methoxyphenyl)methyl]pyrrolidin-3-yl N-{[4-(pyrrolidin-2-yl)phenyl]methyl}carbamate] | < 10 | < 10 | < 10 | < 10
CC(F)(F)c1ccc(C[C@H]2NC[C@H](O)[C@H]2OC(=O)NCc2cccc(F)c2)cc1 [V190547, (2R,3S,4S)-2-{[4-(1,1-difluoroethyl)phenyl]methyl}-4-hydroxypyrrolidin-3-yl N-[(3-fluorophenyl)methyl]carbamate] | < 10 | 20 to 30 | < 10 | < 10
COc1ccc(C[C@H]2NC[C@H](O)[C@H]2OC(=O)NCc2ccc(C(N)=O)cc2)cc1 [V188296, (2R,3S,4S)-4-hydroxy-2-[(4-methoxyphenyl)methyl]pyrrolidin-3-yl N-[(4-carbamoylphenyl)methyl]carbamate] | < 10 | < 10 | < 10 | < 10
COc1ccc(C[C@H]2NC[C@H](O)[C@H]2OC(=O)NCC2COC2)cc1 [V188299, (2R,3S,4S)-4-hydroxy-2-[(4-methoxyphenyl)methyl]pyrrolidin-3-yl N-(oxetan-3-ylmethyl)carbamate] | < 10 | 10 to 20 | < 10 | < 10
O=C(NCC[C@@H]1CCCN1)O[C@@H]1[C@@H](O)CN[C@@H]1Cc1ccc(-c2ccccc2)cc1 [V190505, (2R,3S,4S)-2-{[1,1′-biphenyl]-4-ylmethyl}-4-hydroxypyrrolidin-3-yl N-{2-[(2S)-pyrrolidin-2-yl]ethyl}carbamate] | < 10 | < 10 | < 10 | < 10
COc1ccc(C[C@H]2NC[C@H](O)[C@H]2OC(=O)NCCC[C@H]2CCNC2)cc1 [V188340, (2R,3S,4S)-4-hydroxy-2-[(4-methoxyphenyl)methyl]pyrrolidin-3-yl N-{3-[(3S)-pyrrolidin-3-yl]propyl}carbamate] | < 10 | 10 to 20 | < 10 | < 10
COc1ccc(C[C@H]2NC[C@H](O)[C@H]2OC(=O)NCC=C(C)C)cc1 [V190411, (2R,3S,4S)-4-hydroxy-2-[(4-methoxyphenyl)methyl]pyrrolidin-3-yl N-(3-methylbut-2-en-1-yl)carbamate] | 10 to 20 | 10 to 20 | 10 to 20 | < 10
COc1ccc(C[C@H]2NC[C@H](O)[C@H]2OC(=O)NCCn2nc(C)cc2C)cc1 [V190415, (2R,3S,4S)-4-hydroxy-2-[(4-methoxyphenyl)methyl]pyrrolidin-3-yl N-[2-(3,5-dimethylpyrazol-1-yl)ethyl]carbamate] | > 30 | > 30 | > 30 | > 30
CCCOc1ccc(C[C@H]2NC[C@H](O)[C@H]2OC(=O)NCc2ccccc2)cc1 [V188376, (2R,3S,4S)-4-hydroxy-2-[(4-propoxyphenyl)methyl]pyrrolidin-3-yl N-benzylcarbamate] | < 10 | 10 to 20 | < 10 | < 10
O=C(NCc1ccccc1)O[C@@H]1[C@@H](O)CN[C@@H]1Cc1ccc(C2CC2)cc1 [V188329, (2R,3S,4S)-2-[(4-cyclopropylphenyl)methyl]-4-hydroxypyrrolidin-3-yl N-benzylcarbamate] | < 10 | < 10 | < 10 | < 10
O=C(NCC[C@@H]1CCCN1)O[C@@H]1[C@@H](O)CN[C@@H]1Cc1ccc(-c2ccc(C(F)(F)F)cc2)cc1 [V191963, (2R,3S,4S)-4-hydroxy-2-{[4′-(trifluoromethyl)-[1,1′-biphenyl]-4-yl]methyl}pyrrolidin-3-yl N-{2-[(2S)-pyrrolidin-2-yl]ethyl}carbamate] | > 30 | > 30 | 20 to 30 | 20 to 30
COc1ccc(C[C@H]2NC[C@H](O)[C@H]2OC(=O)NCc2c(F)cccc2F)cc1 [V190521, (2R,3S,4S)-4-hydroxy-2-[(4-methoxyphenyl)methyl]pyrrolidin-3-yl N-[(2,6-difluorophenyl)methyl]carbamate] | 20 to 30 | > 30 | 20 to 30 | 10 to 20
COc1ccc(C[C@H]2NC[C@H](O)[C@H]2OC(=O)NCC[C@@H]2CCCN2)cc1 [V188341, (2R,3S,4S)-4-hydroxy-2-[(4-methoxyphenyl)methyl]pyrrolidin-3-yl N-{2-[(2S)-pyrrolidin-2-yl]ethyl}carbamate] | < 10 | < 10 | < 10 | < 10
COc1ccc(C[C@H]2NC[C@H](O)[C@H]2OC(=O)NCc2ccc(N)nn2)cc1 [V188311, (2R,3S,4S)-4-hydroxy-2-[(4-methoxyphenyl)methyl]pyrrolidin-3-yl N-[(6-aminopyridazine-3-yl)methyl]carbamate] | < 10 | < 10 | < 10 | < 10
COc1ccc(C[C@H]2NC[C@H](O)[C@H]2OC(=O)NCc2ccc(C3CNC3)cc2)cc1 [V190559, (2R,3S,4S)-4-hydroxy-2-[(4-methoxyphenyl)methyl]pyrrolidin-3-yl N-{[4-(azetidin-3-yl)phenyl]methyl}carbamate] | < 10 | < 10 | < 10 | < 10
O=C(NCC[C@@H]1CCCN1)O[C@@H]1[C@@H](O)CN[C@@H]1Cc1ccc(-c2ccc(F)c(F)c2)cc1 [V191962, (2R,3S,4S)-2-({3′,4′-difluoro-[1,1′-biphenyl]-4-yl}methyl)-4-hydroxypyrrolidin-3-yl N-{2-[(2S)-pyrrolidin-2-yl]ethyl}carbamate] | > 30 | > 30 | > 30 | > 30
O=C(NCc1ccccc1)O[C@@H]1[C@@H](O)CN[C@@H]1Cc1ccc(-c2c[nH]nn2)cc1 [V188331, (2R,3S,4S)-4-hydroxy-2-{[4-(1H−1,2,3-triazol-4-yl)phenyl]methyl}pyrrolidin-3-yl N-benzylcarbamate] | < 10 | < 10 | < 10 | < 10
COc1ccc(C[C@H]2NC[C@H](O)[C@H]2OC(=O)NCc2ccc3c(c2)CCNC3)cc1 [V188345, (2R,3S,4S)-4-hydroxy-2-[(4-methoxyphenyl)methyl]pyrrolidin-3-yl N-(1,2,3,4-tetrahydroisoquinolin-6-ylmethyl)carbamate] | < 10 | < 10 | < 10 | < 10
COc1ccc(C[C@H]2NC[C@H](O)[C@H]2OC(=O)NCCc2ccc3c(c2)CNC3)cc1 [V188344, (2R,3S,4S)-4-hydroxy-2-[(4-methoxyphenyl)methyl]pyrrolidin-3-yl N-[2-(2,3-dihydro-1H-isoindol-5-yl)ethyl]carbamate] | < 10 | < 10 | < 10 | < 10
COc1ccc(C[C@H]2NC[C@H](O)[C@H]2OC(=O)NCc2ccc(F)c(C#N)c2)cc1 [V188310, (2R,3S,4S)-4-hydroxy-2-[(4-methoxyphenyl)methyl]pyrrolidin-3-yl N-[(3-cyano-4-fluorophenyl)methyl]carbamate] | < 10 | < 10 | < 10 | < 10
